Source: ChEMBL document CHEMBL1157539, “Thousands of chemical starting points for antimalarial lead identification” (Nature, 2010)

The compounds below were run on Plasmodium falciparum (assay: GSK_TCMDC: Inhibition of Plasmodium falciparum 3D7 in whole erythrocytes, using parasite LDH activity as an index of growth.). Conditions: Plasmodium falciparum, 3D7.
Assay type: functional, organism-based

SMILES | XC50 [nM]
CCOc1ccc2c(N/N=C/c3cccc([N+](=O)[O-])c3)cc(C)nc2c1 | 224
COc1cc(Cc2cnc(N)nc2N)cc(OCCCC(=O)O)c1OC | 1180
Cc1nn(CC(C)C)c2sc(C(=O)N3CCN(S(=O)(=O)c4ccc(C#N)cc4)CC3)cc12 | 739
Cn1nc(-c2ccc(CN[C@@H]3CCc4ccc(O)cc43)cc2)c2cnc(NC3CCCC3)nc21 | 1120
Cc1ccc(NC(=O)Nc2cccc(Cl)c2)cc1-c1ccc(C(=O)Nc2ccncc2)cc1 | 738
COc1ccc2ncc(C)c(CCN3CCC(NCc4ccc5c(n4)NC(=O)CS5)CC3)c2c1 | 546
CC1(C)NC(N)=NC(=N)N1OCCCCOc1ccccc1 | 3.2
NC(=O)c1cnc2cc(-c3ccncc3)cc(Nc3ccc(NC(=O)C4CCCCC4)cc3)c2c1 | 232
c1ccc(Oc2ccc(Nc3ccnc4ccc(-c5ccco5)cc34)cc2)cc1 | 928
OC(CNC1CCCCCC1)c1ccc(Cl)c(Cl)c1 (configuration not stated) | 688
NC1=NC(c2ccccc2)N(OCc2ccccc2)C(N)=N1 (configuration not stated) | 43.1
COc1ccc(Cl)cc1N1CCN(CCCNC(=O)c2ccc(-c3nc4cc(Cl)c(F)cc4[nH]3)s2)CC1 | 314
Cc1cccc(-c2ccc3c(c2)CC(NCc2cccc(-n4ccnc4)c2)C3)c1 (configuration not stated) | 874
Cc1ccc(O)cc1Nc1ccnc2ccc(-c3cccc(CNCCN(C)C)c3)cc12 | 612
Cc1cccc2nc(-c3ccc(-c4cccc(NC(=O)Nc5ccc(Cl)cc5)c4)s3)[nH]c12 | 517
COc1ccc(O)c(-c2sc(N=C(N)N)nc2-c2ccccc2)c1 | 372
CN(C)CCOc1cc(NC(=O)Nc2ccc3c(c2)CCCC3=O)ccc1I | 939
c1cncc(CCNCc2cccc(-c3csc(-c4nc5ccccc5[nH]4)c3)c2)c1 | 704
Cc1ccc(CON2C(=N)N=C(N)NC2(C)C)cc1C | 3.2
COc1cccc(NC(=O)[C@H](C(C)C)n2c(=O)[nH]c3ccccc3c2=O)c1 | 266
COc1ccc(Cc2c(N)nc3nc(N)nc(N)c3c2C)cc1 | 189
COC(=O)C(Cc1ccccc1)C(CSCc1ccc(OC)cc1)C(=O)N[C@@H](C(=O)OC(C)(C)C)c1ccc(C(C)(C)C)cc1 (some centres not stated) | 1030
O=C(Nc1ccccc1)N(Cc1cccc(-c2ccc(CNCCc3ccccc3)cc2)c1)C1CCN(Cc2ccccc2)CC1 | 349
Cc1ccc2[nH]c(C)cc(=NN=CC=Cc3ccccc3)c2c1 | 840
CC1CN(c2ccc(NC(=O)c3ccc(F)cc3)cc2)CCN1Cc1cccc(F)c1 (configuration not stated) | 1350

SMILES | XC50 [nM]
Oc1ccc(CCNc2nc(NCCCOc3ccccc3-c3cccnc3)nc(N3CCNCC3)n2)cc1 | 1040
COc1ccc2[nH]c(C)cc(=NN=Cc3ccncc3)c2c1 | 697
COc1ccc(Nc2nccc(-c3cccc(NC(=O)c4cc5cc(F)ccc5[nH]4)c3)n2)cc1 | 1030
COc1ccc(-c2ccc(NC(=O)c3ccc(C#N)cc3)cc2)cc1CN(C)CCN(C)C | 663
OCC1CCN(Cc2ccc(-c3ccc(-c4nc5cc(C(F)(F)F)ccc5[nH]4)cc3)cc2)CC1 | 697
Cc1nc(-c2nc(NCc3ccncc3)ncc2-c2ccsc2)sc1C | 989
OCCN1CCN(Cc2ccc(-c3cccc(-c4nc5cc(C(F)(F)F)ccc5[nH]4)c3)cc2)CC1 | 642
CCCc1cc(OC)c(CC2c3cc(O)c(Cl)cc3C(c3ccccc3)CN2C)cc1OC (configuration not stated) | 430
Cc1sc2ncnc(Sc3nc4ccccc4[nH]3)c2c1C | 255
COc1ccc2c(c1C1CCN(CCCCNC(=O)c3ccc(NC(=O)c4ccc(Cl)cc4)cc3)CC1)CCCC2 | 341
Cc1cccc2nc(-c3ccc(-c4ccc(CNCc5ccc(CN)cc5)cc4)cc3)[nH]c12 | 721
Cc1nc(N)nc(N)c1OCCCOc1ccccc1Br | 4.1
COc1c(C2CCN(CCCCNC(=O)C=Cc3cc4cc(Cl)ccc4o3)CC2)ccc2c1CCCC2 | 1310
CCCCCCNC(=N)c1ccc(OCCCCCOc2ccc(C(=N)NCCCCCC)cc2)cc1 | 309
COc1cccc(-c2cc(C(F)(F)F)n3ncc(C(=O)Nc4cc(C)ccc4O)c3n2)c1 | 159
N[C@@H](CCNCc1ccc(-c2cccnc2)cc1)Cc1ccc(F)c(F)c1 | 797
O=C(/C=C/c1ccc(Cl)c(Cl)c1)NCCCCCCN1CCCN(C(=O)Nc2ccc(Cl)c(C(F)(F)F)c2)CC1 | 565
CCOc1cc(C(=O)NCC2CCN(CC3CCCCC3)CC2)ccc1-c1nc2cc(Cl)ccc2[nH]1 | 563
Cc1cc(N[C@@H](CC(C)C)C(=O)NCCOc2ccccc2)nc(NCCOc2ccccc2)n1 | 1490
COc1ccc(-c2ccc(NC(=O)c3cccc(C#N)c3)cc2)cc1CN1CCC(O)CC1 | 821
CCCCN1C(=N)NC(c2ccccc2)(c2ccccc2)C1=O | 1030
COc1ccccc1CCNc1nc(C)cc(N[C@@H](CC(C)C)C(=O)NCCc2ccccc2)n1 | 718
CC[C@H](C)CNC(=O)c1cncc(-c2ccc(CNCCCc3ccccc3)cc2)c1 | 735
O=S(=O)(NC1CCN(c2ccnc3cc(Cl)ccc23)C1)c1ccc(C(F)(F)F)cc1 (configuration not stated) | 298
CC(C)COc1ccc(Cl)cc1Cc1nc(-c2nc3ccc(CN4CCN(C)CC4)cc3[nH]2)co1 | 912

SMILES | XC50 [nM]
CC1(C)CC(NC(=O)NC2CCN(Cc3ccccc3)CC2)CC(C)(CNC(=O)NC2CCN(Cc3ccccc3)CC2)C1 (configuration not stated) | 946
Cc1cc(C)c(C)c(S(=O)(=O)N2CCCCC(c3ccc(F)c(F)c3)=N2)c1C | 706
Cc1cc(NCC(C)C)c2[nH]nc(-c3ccccc3)c2n1 | 744
O=C(NC1CCN(Cc2ccccc2)CC1)c1cc(C(=O)NC2CCN(Cc3ccccc3)CC2)cc(C(=O)NC2CCN(Cc3ccccc3)CC2)c1 | 1040
COc1cc(Nc2nccc(N3CCC(NC(=O)Nc4ccc5c(c4)OCO5)C3)n2)cc(OC)c1OC (configuration not stated) | 761
CC(C)(C)c1ccc(C(=O)N2CCC3(CC2)C(=O)N(CC(=O)NCC2CCCO2)CN3c2ccccc2)cc1 (configuration not stated) | 231
COc1ccc(CCn2c(=N)c(C(=O)NCc3ccccc3)cc3c(=O)n4ccccc4nc32)cc1 | 751
O=C(CN(c1cccc(C(F)(F)F)c1)S(=O)(=O)c1ccc(Cl)cc1)NCCC(c1ccccc1)c1ccccc1 | 743
c1cc2[nH]c(CCCCc3nc4cc(C5=N[C@H]6CCCC[C@H]6N5)ccc4[nH]3)nc2cc1C1=N[C@H]2CCCC[C@H]2N1 | 415
CCn1c(Sc2ccc(C#N)c([N+](=O)[O-])c2)nnc1-c1ccc(OC)cc1 | 805
COc1ccc(NC(=O)[C@H](CC(C)C)Nc2ccnc(Nc3ccccc3)n2)cc1 | 1570
COc1ccccc1CN1CCC(NC(=O)c2ccc(-c3cccc(C(F)(F)F)c3)s2)CC1 | 1310
Cc1cc(C)c(S(=O)(=O)N2CCCCC(c3cccc(C(F)(F)F)c3)=N2)c(C)c1 | 456
Cc1cc(=NN=Cc2cccc(F)c2)c2ccc(F)cc2[nH]1 | 229
COc1cc2nc(NCCc3ccccc3)nc(NCc3ccc(C#N)cc3)c2cc1OC | 145
O=C(c1cccc(-c2cccc(-c3nc4cc(F)ccc4[nH]3)c2)c1)N1CCCCC1CN1CCC(O)C1 (configuration not stated) | 882
COc1cc(-c2[nH]c(-c3ccc(OCCN(C)C)cc3)cc2-c2ccncc2)ccc1Cl | 1790
COc1ccc(OCCCN2CCCCC2)cc1S(=O)(=O)c1ccc(OCc2ccc(C(F)(F)F)cc2)cc1 | 1010
CN1CCc2cc(Br)c(O)cc2C1Cc1ccccc1Cl (configuration not stated) | 667
COc1cc(NC(=O)/C=C/c2cc(F)cc(F)c2F)cc(OCCN2CCN(CCN3CCOCC3)CC2)c1 | 771
COc1ccc(C(=O)Nc2cc(Br)c3c(c2)CNCC3)cc1C(F)(F)F | 1070
OC1(c2ccccc2)c2cc(Cl)ccc2OC1c1nc2c(Cl)ccc(Cl)c2o1 (configuration not stated) | 301
O=C(Cc1ccccc1)NC(c1ccccc1)c1ccc2cccnc2c1O (configuration not stated) | 952
Nc1nc(Cc2ccc(Cl)cc2)nc(Cc2ccc(Cl)cc2)n1 | 929
Cc1ccc(Oc2ccccc2NC(=O)CCc2nc3ccccc3c(=O)[nH]2)cc1 | 827

SMILES | XC50 [nM]
Cn1c(=O)c2nc(-c3ccc(Cl)cc3)nnc2n(CCCC#N)c1=O | 153
CN(Cc1c(Cl)cnn1C)S(=O)(=O)c1ccc2ccccc2c1 | 1040
CCOc1ccc(OCC(=O)Nc2nc(-c3ccc(OC)cc3)c(C)s2)cc1 | 220
COc1ccc(CNCc2ccc(-c3ccc(-c4nc5cccc(C)c5[nH]4)cc3)cc2)cc1 | 341
OCCN1CCN(Cc2cccc(-c3ccc(-c4nc5cc(C(F)(F)F)ccc5[nH]4)cc3)c2)CC1 | 559
C(=N\Nc1nccc2sc(-c3ccccc3)cc12)/c1cccnc1 | 821
O=C(/C=C/c1ccc(Cl)c(Cl)c1)NCCCCN1CCCN(C(=O)Nc2cc(Cl)cc(Cl)c2)CC1 | 949
Cc1cccc2nc(-c3ccc(-c4cccc(NC(=O)COc5ccccc5C(N)=O)c4)s3)[nH]c12 | 734
Cc1cc(Cl)c(S(=O)(=O)N(C)c2ccccc2)cc1OCC(=O)NC1CCCCC1 | 296
CC(C)(C)c1nn(-c2ccc(Cl)cc2)c2[nH]c(=O)c(CNC3CCCC3)cc12 | 234
CCOc1ccc(C2CCN(CCCCNC(=O)c3ccc(NC(=O)c4ccc(Cl)cc4)cc3)CC2)c(OCC)c1 | 677
CC(C)N1CCN(C(=O)c2ccc(CNCCCN3CCN(c4cccc(Cl)c4Cl)CC3)o2)CC1 | 737
Cc1ccc2[nH]c3c(NCCCN4CCOCC4)ncnc3c2c1 | 942
Oc1ccc(CCNc2nc(NCCOc3ccccc3-c3ccccc3)nc(N3CCNCC3)n2)cc1 | 1040
CN1CCCN(Cc2ccc(-c3ccc(NC(=O)c4ccc(Cl)cc4)cc3)cc2)CC1 | 895
O=C(/C=C/c1ccc(F)cc1)NC1CCC(CCN2CCc3ccc(-n4cccn4)cc3CC2)CC1 (configuration not stated) | 1440
CC(Oc1cccc(Cl)c1)C(=O)N1CCc2ccccc21 (configuration not stated) | 512
CC(C)C[C@H](NC(=O)c1cc2cc(OCCN3CCNCC3)ccc2o1)C(=O)NC1CC[C@@H](C)N(C(=O)Nc2ccc(Cl)cc2)CC1=O (some centres not stated) | 382
Fc1ccc2[nH]c(-c3cccc(-c4cccc(CNCCc5ccncc5)c4)c3)nc2c1 | 170
COc1ccc2nccc([C@@H](O)CN3CCC(NCC(O)Cc4ccccc4)CC3)c2c1 (some centres not stated) | 671
Cc1ccc(C)c(NC(=O)Nc2ccc(C)c(-c3ccc(C(=O)Nc4ccncc4)cc3)c2)c1 | 618
Cc1cc(C)cc(-n2c(C)cc(/C=C3\SC(=Nc4ccc(Cl)cc4)NC3=O)c2C)c1 | 65.8
